Source: a melting point compilation (Tetko et al.; mined from patent text by program, amines drawn as free bases though some values may be those of a salt)

melting point	Compound
135 to 136 °C	O=C(CC(O)(c1cc(Cl)cc(Cl)c1)C(F)(F)F)c1ccc(-n2cncn2)nc1 (centres undefined)
178 to 180 °C	Cc1ccc(F)cc1C(=O)Nc1ccc(C(=O)N2CCCCc3sccc32)cn1
115 to 117 °C	Cc1cc(C(=O)c2cccc(Br)c2)c(O)cc1Cl
144 to 145 °C	CC(=O)OCC(=O)c1cc2c(s1)CCC1CC(=O)N(c3ccc(C)cc3)N=C21 (centres undefined)
134 to 136 °C	CC(=O)c1c(-c2ccc(F)cc2)ncn1C1CC(C)(C)NC(C)(C)C1
65 to 66.5 °C	CC(=O)c1c(C)oc(-c2ccncc2)c1C
121 to 122 °C	CCOc1nn(-c2ccc(C(F)(F)F)cn2)cc1CCCOc1cc(CCC(=O)O)n(-c2ccccc2)n1
314 to 316 °C	N#CC1C(=O)Nc2cc(Cl)ccc2C1=O (centres undefined)
123 °C	CCOC(=O)c1ccccc1NCc1c(-c2ccccc2)nn(C)c1Cl
115 to 116 °C	COCOc1ccc(OC(C)C(=O)Nc2ccc(OC(F)(F)F)cc2)cc1 (centres undefined)
155 to 156 °C	COCCNC(=O)CC1CN=C(c2cc3cc(Oc4ccc(S(C)(=O)=O)nc4)ccc3[nH]2)S1 (centres undefined)
177 to 178 °C	CC(C)c1nc(CCO)n(C)c1Sc1cc(Cl)cc(Cl)c1
98.5 to 100 °C	CCC1(CC)OC(=O)c2cc([N+](=O)[O-])ccc21
198 to 200 °C	CN(C)C(=O)n1nc(NC=O)c2cc(C(F)(F)F)ccc21
222 °C	O=C(Nc1nc(C(F)(F)F)co1)C1c2ccccc2Oc2ccccc21
124 to 126 °C	CON=C(C(=O)NN)c1ccccc1COc1cc(C)ccc1C
122 °C	CCN(CC)C(=O)c1cc2ccccc2c(-c2ccc(Cl)cc2)n1
149 to 150 °C	COc1ccc(C(=O)N2c3ccccc3C(n3c4ccccc4c4ccccc43)CC2CCCCCN2CCC(c3cccc(C(F)(F)F)c3)CC2)cc1OC (centres undefined)
114 to 115 °C	CC(C)CNc1c([N+](=O)[O-])cnc2cc(Br)cnc12
167 to 168 °C	CCCCNC(=O)NS(=O)(=O)CCc1c(C2CC2)nn(C)c1-n1ccc2cc(Cl)cnc21
170 to 183 °C	C#CCNC(=O)NC1CCC(=O)c2sccc21 (centres undefined)
40 to 41 °C	CCSc1ccc(Cl)c(OS(C)(=O)=O)n1
171 to 173 °C	CC1CC(=O)N(CCO)N=C1c1ccc2c(c1)CCC(=O)N2C (centres undefined)
74 to 75 °C	CCCN(CCC)C(=O)CNc1ccnc(-c2ccccc2)n1

melting point	Compound
216 to 218 °C	Cc1cc2ncnn2nc1OCC(C)(C)CS(N)(=O)=O
173 to 174 °C	Cc1oc(=O)oc1CS[C@H](C)[C@](O)(Cn1cncn1)c1ccc(F)cc1F (racemic)
132 to 134 °C	Cc1c(C)c(-c2cccc(CO)c2)c(C)c(C)c1OCCCS(C)(=O)=O
61.5 to 63 °C	CC(=O)c1ccc(C(C)ON2C(C)(C)CCCC2(C)C)cc1 (centres undefined)
174 to 175 °C	Cc1c(CC(=O)N(C)O)c2cc(OCc3nc4ccccc4s3)ccc2n1Cc1ccc(Cl)cc1
108 to 113 °C	CS(=O)(=O)c1ccc(-n2nc(CNC(=O)Nc3cccc(C(F)(F)F)c3)cc2-c2ccccc2)cc1
143 to 146 °C	COc1c(C(=O)O)nc(-c2ccc(Cl)c(OC)c2F)c(F)c1N
> 250 °C	N#Cc1ccc2[nH]c3c(ccc4c(C=O)c[nH]c43)c2c1
208 to 210 °C	COc1cc(Cc2cnc(N)nc2NO)cc(OC)c1OC
162 °C	Cc1c(C(C)CC(=O)O)n(Cc2ccc(Cl)cc2)c2ccc(O)cc12 (centres undefined)
143 to 144 °C	Cc1cc(-c2c(Cl)ccc(C(=O)c3cnn(C)c3O)c2Cl)on1
173 to 175 °C	CCS(=O)(=O)C(=CNc1ccc(Cl)cc1)S(=O)(=O)CC
225 to 227 °C	O=C1N(Cc2sc(C(F)(F)F)cc2O)c2ccccc2C12COc1cc3c(cc12)OCO3 (centres undefined)
204 to 206 °C	Cc1ccccc1S(=O)(=O)NC1CCc2sc(C3=NNC(=O)CC3)cc2C1 (centres undefined)
234 °C	CCCCOc1c(CNC(=O)OC(C)(C)C)n(CC(C)C)c(=O)c2ccc(-c3nc(C)c(C(N)=O)s3)cc12
76 to 78 °C	CCC(=O)N(C)c1ccc(C(=O)C=CN(C)C)cc1
137 to 139 °C	CCOC(=O)c1cnc2sccc2c1O
105 to 107 °C	CCOC(=O)C1(C(=O)Nc2cc(Cl)c(Cl)cc2C)CC1
124 to 127 °C	CCCCc1nc2cccc(C#N)c2n1Cc1ccccc1Cl
196 °C	CC(C)(C)NC(=O)NCC#CCNC(=O)Nc1nc2c(s1)-c1c(cnn1-c1ccccc1)CC2
> 230 °C	CSc1nn2c(O)cc(C)nc2c1S(=O)(=O)c1ccc(C)cc1
205 to 207 °C	Cc1c(O)c(=O)ccn1Cc1ccccc1
120 °C	CC(C)(C)OC(=O)c1[nH]c2cc(Cl)cc(Cl)c2c1C=C1CON(c2ccccc2)C1=O
177 to 178 °C	CN(C)c1ccc(C=Cc2cc3cc(O)ccc3o2)cc1

Further lines, the compound ahead of its results:

Compound	melting point
COc1ccc2cc(-c3csc(Cc4c(Cl)cccc4Cl)n3)ccc2c1	136 to 138 °C
Cc1nc(N)sc1S(=O)(=O)NC(C)(C)CO	146 °C
Cc1cccc(OC2CCN(CCc3c[nH]c4ccccc34)CC2)c1	145 to 146 °C
O=[N+]([O-])c1ccc(Cn2cncn2)cc1	98 to 100 °C
CNCc1ccc2oc(-c3ccccc3C#N)c(Br)c2c1	114 °C
CCOCS(=O)(=O)c1ccc(C(CC2CCCC2)C(=O)Nc2nc3ccc(OC)nc3s2)cc1 (centres undefined)	158 to 160 °C
COc1ccc(CCN2CCC(Nc3nc4cncnc4n3Cc3ccccn3)CC2)cc1	144 °C
O=C(c1ccccc1)c1oc2ccccc2c1-c1ccc(-c2ccc(OC(Cc3ccccc3)C(=O)O)cc2)cc1 (centres undefined)	159 to 161 °C
CC(C)(CNc1ccc(C2=NNC(=O)CC2)cc1)NCC(O)COc1ccccc1C#N (centres undefined)	126 to 128 °C
Cc1c2c(c(Br)c(C(C)C)c1OCc1ccccc1)OC(C)(C)C2	156 °C
Cc1cc(C2=C(c3cc(C)sc3C)CCC=C2)c(C)s1	55 to 57 °C
Cc1c(Cl)cncc1Cl	46 to 47 °C
N[C@H](C1CCCCC1)C(O)(c1ccccc1)c1ccccc1	181 to 182 °C
N#CCOc1ccc(CN2C(=O)c3cccc(NC(=O)c4ccc(Cl)s4)c3C2=O)cc1	199 °C
COc1cc2c(Oc3cnc4[nH]ccc4c3)ncnc2cc1OCCCN1CCCC1	184 to 186 °C
CCCC(=O)OCn1cc(F)c(=O)[nH]c1=O	96 to 98 °C
COc1cc2c(cc1OC)N(C(=O)CCSC(C)=O)C(C(=O)O)CC2 (centres undefined)	104 to 107 °C
COc1ccccc1-n1c(=O)[nH]c2c(C(N)=O)nc(-c3ccc4nc[nH]c4c3)nc21	306 °C
Nc1ccc(CCc2n[nH]c3c2c(=O)n(-c2ccccc2)c2ncccc32)cc1	> 310 °C
COc1ccc(C2=C(CO)c3ccc(OC)cc3CC2)cc1	121 °C
COc1ccc2cccc(N)c2c1	134 to 136 °C
N#Cc1cnc2cc3c(cc2c1Nc1ccc(Cl)cc1Cl)OCCN3	254 to 255 °C
N#CC1(N2CCN(c3ccccc3)CC2)CCCCC1	133 to 135 °C
COc1cc2c(cc1OCc1ccccc1)CCCN(Cc1cc(OC)c(OC)c(OC)c1)C2	44 to 46 °C
N#Cc1ccc(N2C(=O)N(CCCCO)C3(CCCCC3)C2=O)cc1C(F)(F)F	145 °C
O=C(Cc1ccncc1)c1ccc(F)cc1	90 to 91 °C

Compound	melting point
COCC1CCCN1Cc1ccc2cc(NC(=O)c3ccc(-c4ccc(Cl)cc4)cc3)ccc2n1 (centres undefined)	172 to 174 °C
Cc1cc2cc(CN3CCC(C(=O)N4CCCCC4)CC3)cnc2cc1NC(=O)c1ccc(-c2ccc(F)cc2)cc1	250 °C
O=C(Nc1nccs1)C(=O)c1cn(Cc2ccc(F)cc2)c2ccccc12	233 to 237 °C
CSc1nn2c(N3CCNCC3)cc(C(C)(C)C)nc2c1S(=O)(=O)c1ccccc1	236 to 237 °C
O=C1Cc2cc(Cl)cc(Oc3ccccc3F)c2N1	204 to 207 °C
CCOC(=O)CC1c2cccn2S(=O)(=O)c2ccccc2N1C(=O)c1ccccc1 (centres undefined)	178 to 181 °C
CCOc1cc2c3cc(OCC)c(OCC)cc3c3c(OC)ccc(OC)c3c2cc1OCC	157 to 158 °C
O=C1NCCN1c1ccc(S(=O)(=O)Nc2ccc(Cl)cc2)cc1	234 to 236 °C
CCC(CC)O[C@@H]1C=C(C(=O)O)C[C@H](CC=O)[C@H]1NC(C)=O	70 to 71 °C
Cc1ccccc1Nc1nc(Cl)c2sccc2n1	87 to 89 °C
O=C(O)CCn1c(=O)c2ccccc2n(CCCN2CCC(OC(c3ccccc3)c3ccccc3)CC2)c1=O	150 to 151 °C
CSC1C=C2C=CC=CN2N1[N+](=O)[O-] (centres undefined)	225 °C
CCc1ccccc1NS(=O)(=O)c1ccc(N2CCNC2=O)cc1	171 to 172 °C
CCNC(=O)[C@@H](C[C@H](O)[C@H](CC1CCCCC1)NC(=O)OC(C)(C)C)C(C)(C)O	155 to 157 °C
CC12CCC(C(=Cc3ccc(COc4ccccc4C(=O)O)cc3)C1=O)C2(C)C (centres undefined)	128 °C
Nc1nc2ccccc2c2c1nc(O)n2CC1CCOCC1	> 250 °C
Cc1c(S(=O)(=O)c2ccc(Cl)cc2)csc1-c1nc(-c2c(F)cccc2F)nn1C	183 to 185 °C
Fc1ccc(-c2cc3ncnc(Nc4ccc5[nH]ccc5c4)c3s2)cc1	193 to 205 °C
N#Cc1cc(Cl)ccc1Oc1cc(N2CCOCC2)c(F)cc1OCc1ccccc1	134 to 135 °C
CS(=O)(=O)N1CCC(N)CC1	65.3 to 65.7 °C
CC(C)(C)OC(=O)N1CC(c2ccc(N=C(c3ccccc3)c3ccccc3)nc2)C1	104 to 105 °C
O=C(O)[C@H]1C[C@@H](C(=O)O)c2c(Cl)cc(Cl)cc2N1 (relative stereo)	225 to 227 °C
Cc1cccc2c1Oc1ccccc1N2	91 °C
COc1cc(COc2ncccc2CO)ccc1OCc1nc(-c2ccccc2)oc1C	143 to 144 °C
O=c1c(-c2ccc(Cl)cc2)nc2ccccc2n1CC(F)F	133 to 136 °C
